The values below are quoted from earlier work in patent US6420614B1, “Process for obtaining 3′-epilutein” (Industrial Organica, S.A. DE C.V., priority 2000, dated 2002).

SMILES strings stand for the structures.

The subject of this data set is egg yolk. The settings on record: relative potency of zeaxanthin stereoisomers; (3R,3′R)-zeaxanthin = 100%.

In the case of `CC1=C(/C=C/C(C)=C/C=C/C(C)=C/C=C/C=C(C)/C=C/C=C(C)/C=C/C2=C(C)C[C@@H](O)CC2(C)C)C(C)(C)C[C@H](O)C1` [(3RS, 3′SR)-zeaxanthin (racemic), (3RS, 3′SR)-zeaxanthin], the “potency in pigmenting of egg yolk” value was 92%. With `CC1=C(/C=C/C(C)=C/C=C/C(C)=C/C=C/C=C(C)/C=C/C=C(C)/C=C/C2=C(C)C[C@H](O)CC2(C)C)C(C)(C)C[C@@H](O)C1` (single isomer, unassigned) [(3S, 3′S)-zeaxanthin (enantiomer)], the “potency in pigmenting of egg yolk” value was 86%.

With `CC1=C(/C=C/C(C)=C/C=C/C(C)=C/C=C/C=C(C)/C=C/C=C(C)/C=C/C2=C(C)C[C@@H](O)CC2(C)C)C(C)(C)C[C@H](O)C1` [(3R, 3′R)-zeaxanthin (III), (3R,3′R)-zeaxanthin], the “potency in pigmenting of egg yolk” value is given as 100%. On to `CC1=C(/C=C/C(C)=C/C=C/C(C)=C/C=C/C=C(C)/C=C/C=C(C)/C=C/C2=C(C)C[C@H](O)CC2(C)C)C(C)(C)C[C@H](O)C1` [(3R, 3′S)-zeaxanthin (meso, II), (3R,3′S)-zeaxanthin], for which the “potency in pigmenting of egg yolk” value is recorded as 37%.
